# From ChEMBL document CHEMBL5365463, “Identification of a Self-Assembling Small-Molecule Cancer Vaccine Adjuvant with an Improved Toxicity Profile” (J Med Chem, 2023)
# Active and inactive are the calls of the source. No cut-off for these calls is given here.
# Key:
# [1] = test system: B16-OVA melanoma cell; assay: Antitumor activity against mouse B16-OVA melanoma cell xenografted in C57BL/6 mouse assessed as increase in CD8+T cell level in spleen at 500 ug measured after 24 hrs in presence of OVAp by flow cytometry analysis; assay type: functional, cell-based; details: dose 500.0 µg
# [2] = test system: BMDC; assay: Induction of immune response in TLR7 knockout mouse BMDC cells assessed as increase in CXCL10 production at 10 to 100 uM incubated for 24 hrs by ELISA method; assay type: functional, cell-based; details: dose 10-100 µM
# [3] = test system: BMDC; assay: Induction of IL-6 production in mouse BMDC cells at 100 uM; assay type: functional, cell-based
# [4] = test system: RAW264.7; assay: Induction of apoptosis in mouse RAW264.7 cells assessed as apoptotic cells at 8 uM by flow cytometry analysis (reference value: 3.26 %); assay type: functional
# [5] = test system: BMDC; assay: Cytotoxicity against mouse BMDC cells at 80 uM incubated for 24 hrs by Celltiter-Glo luminescence assay; assay type: toxicity, cell-based
# [6] = Toxicity in C57BL/6 mouse assessed as effect on ALT level in serum at 500 ug measured after 1 day after immunization; details: 24 h, dose 500 µg
# [7] = test system: BMDC; assay: Induction of immune response in TLR7 knockout mouse BMDC cells assessed as increase in IL-6 production at 10 to 100 uM incubated for 24 hrs by ELISA method; assay type: functional, cell-based; details: dose 10-100 µM
# [8] = test system: RAW264.7; assay: Upregulation of CD40 expression in mouse RAW264.7 cells measured after 24 hrs by flow cytometry analysis; assay type: functional, cell-based; details: dose 10-50 µM
# [9] = test system: BMDC; assay: Upregulation of CD86 expression in mouse BMDC cells at 5 to 50 uM measured after 24 hrs in presence of OVAp by flow cytometry analysis; assay type: functional, cell-based; details: dose 5-50 µM
# [10] = Upregulation of CD86 expression in mouse BMDC cells assessed as fold increase at 5 to 50 uM measured after 24 hrs in presence of OVAp by flow cytometry analysis; assay type: functional; details: dose 5-50 µM
# [11] = Toxicity in BALB/c mouse assessed as reduction in leukocyte count measured after 16 hrs; details: dose 100-1000 µg
# [12] = Upregulation of CD86 expression in mouse RAW264.7 cells assessed as fold increase in fluorescence intensity at 20 uM measured after 24 hrs by flow cytometry analysis; assay type: functional
# [13] = Toxicity in C57BL/6 mouse assessed as effect on ALB level in serum at 500 ug measured after 1 day after immunization; details: 24 h, dose 500 µg
# [14] = Toxicity in C57BL/6 mouse assessed as effect on body weight at 500 ug measured from day 9 to 21; details: in vivo, 312 h, dose 500 µg, time 13 day
# [15] = test system: RAW264.7; assay: Induction of apoptosis in mouse RAW264.7 cells assessed as live cells at 4 uM by flow cytometry analysis (reference value: 75.4 %); assay type: functional
# [16] = test system: BMDC; assay: Induction of immune response in TLR7 knockout mouse BMDC cells assessed as increase in TNF-alpha production at 10 to 100 uM incubated for 24 hrs by ELISA method; assay type: functional, cell-based; details: dose 10-100 µM
# [17] = Toxicity in BALB/c mouse assessed as increase in Mx2 expression at 100 to 1000 ug measured after 16 hrs in presence of hemagglutinin; details: in vivo, dose 100-1000 µg
# [18] = Toxicity in C57BL/6 mouse assessed as effect on heart at 500 ug, sc by H and E staining based analysis; assay type: organism-based; details: in vivo, dose 500 µg
# [19] = test system: RAW264.7; assay: Induction of apoptosis in mouse RAW264.7 cells assessed as live cells at 12 uM by flow cytometry analysis (reference value: 75.4 %); assay type: functional
smiles,measurement,setting,value
C[C@H](CCC(=O)NCCCCCCCNC(=O)CC[C@@H](C)[C@H]1CC[C@H]2[C@@H]3CC[C@@H]4C[C@H](O)CC[C@]4(C)[C@H]3C[C@H](O)[C@]12C)[C@H]1CC[C@H]2[C@@H]3CC[C@@H]4C[C@H](O)CC[C@]4(C)[C@H]3C[C@H](O)[C@]12C,Activity,[1],Active
same,Activity,[2],inactive
same,Activity,[3],Active
same,Activity,[4],1.47%
same,Activity,[5],Non-Toxic
same,Activity,[6],Non-Toxic
same,Activity,[7],inactive
same,Activity,[8],Dose-Dependent Effect
same,Activity,[9],Active
same,fold change (FC),[10],1.2
same,Activity,[11],Non-Toxic
same,fold change (FC),[12],2
same,Activity,[13],Non-Toxic
same,Activity,[14],Non-Toxic
same,Activity,[15],77.8%
same,Activity,[16],inactive
same,Activity,[17],Non-Toxic
same,Activity,[18],Non-Toxic
same,Activity,[19],66.8%
